Key:
patients with T1D [1] = test: CGM metrics after exercise session, randomized 4-period crossover trial of mini-dose glucagon in T1D; format: in vivo, human; settings: no statistically significant differences
Excerpt: Visit Schedule. (1) Screening/Baseline Visit. This visit will be used to assess eligibility and can include determination of VO2 max for fitness evaluation and for the determination of exercise intensity for the study. (2) Randomized Crossover Trial. Each participant will undergo four aerobic exercise sessions (in random order), with different strategies for glucose regulation that include: (i) Control: Fasted exercise, no basal insulin reduction; (ii) Strategy 1: Fasted exercise, basal insulin reduction only (50% reduction in basal rate five minutes before exercise, for the duration of the exercise); (iii) Strategy 2: Fasted exercise, no basal adjustment+pre-exercise glucose tabs (buccal route-40 grams in total); (iv) Strategy 3: Fasted exercise, no basal adjustment+pre-exercise mini-dose glucagon (sc). In all 4 sessions, aerobic exercise will be performed in the fasted state (before a standardized meal) for 45 minutes at ˜50-55% of the participant's predetermined aerobic capacity. The strategies for select sessions will be blinded. The day before each exercise session participants will: Insert new insulin infusion set into abdomen or upper buttock (ensure not in exercising limb); For CGM users, insert a new CGM sensor; For non-CGM users, come into clinic to have a CGM sensor inserted to use with a blinded receiver. For participants using the blinded CGM, the sensor will be removed at 12:00 PM the next day at home (˜24 hours after the end of exercise). The participant will bring the device to the next visit or mail it back to the clinic. Participants will receive a phone call the day after each exercise session to elicit any adverse events. For CGM users, the CGM data will be downloaded at each visit and arrangements made to transmit the data following the last exercise session. The participant's insulin pump will be downloaded at each visit and arrangements made to transmit the data following the last exercise session. Subjects aged 18-<65 years with a duration of T1D ≥2 years, a random C-peptide <0.6 ng/ml, that use CSII (Insulin pump) for at least 6 months, with no plans to discontinue pump use during the study and exercise regularly, ≥30 minutes moderate or more vigorous aerobic activity X≥3 times/week were randomized in a 4-period crossover trial. The control was no basal insulin adjustment, no carbs unless glucose <70 mg/dL (then 20 g dextrose given). Basal Rate Reduction: Basal rate decreased by 50% 5 minutes before start of exercise (basal rate returned to usual rate at end of exercise). Glucose Tabs: Dextrose tabs orally (20 grams) 5 min before start of exercise and 20 grams again at 30 min after start. Mini-Dose Glucagon: Glucagon (150 μg) 5 min before start of exercise (SQ-abdomen). Exercise consisted of moderate intensity aerobic activity (treadmill brisk uphill walking) performed at 50-55% VO2 max for 45 min. Performed in fasted state. Same workload performed at each exercise session. Exercise was terminated if: glucose <70 mg/dL (participant treated for hypo) and/or participant experienced dizziness, pallor and other symptoms of poor perfusion and/or exercise intolerance. Following each exercise session, participants rested for 30 min and then consumed a standardized meal. Meal contained 44-50 grams of carbohydrate (55% of calories from carbohydrate, 20% from protein, and 25% from fat). Insulin is administered as pump bolus 5 min before standardized meal using participants own carbohydrate ratio with correction only if glucose ≥270 mg/dL.

patients with T1D [2] = test: Plasma glucose (YSI analyzer) during exercise/early recovery and post meal, randomized 4-period crossover trial; format: in vivo, human
Excerpt: Visit Schedule. (1) Screening/Baseline Visit. This visit will be used to assess eligibility and can include determination of VO2 max for fitness evaluation and for the determination of exercise intensity for the study. (2) Randomized Crossover Trial. Each participant will undergo four aerobic exercise sessions (in random order), with different strategies for glucose regulation that include: (i) Control: Fasted exercise, no basal insulin reduction; (ii) Strategy 1: Fasted exercise, basal insulin reduction only (50% reduction in basal rate five minutes before exercise, for the duration of the exercise); (iii) Strategy 2: Fasted exercise, no basal adjustment+pre-exercise glucose tabs (buccal route-40 grams in total); (iv) Strategy 3: Fasted exercise, no basal adjustment+pre-exercise mini-dose glucagon (sc). In all 4 sessions, aerobic exercise will be performed in the fasted state (before a standardized meal) for 45 minutes at ˜50-55% of the participant's predetermined aerobic capacity. The strategies for select sessions will be blinded. Sample collection. Blood samples collected through a venous catheter with plasma glucose measured by an YSI analyzer. Blood samples will be collected at: Baseline (at −30, −15, −5, 0 min), During exercise (at 5, 10, 15, 25, 35, 45 min), In recovery post exercise (at 50, 55, 60, 75 min), Regularly following a standardized mixed meal for 90 minutes (at 90, 105, 120, 135, and 165 min). Plasma from the collected blood samples will be used to measure the following hormones, proinflammatory markers and metabolites at baseline, during exercise, in recovery post exercise, and regularly following the standardized mixed meal: Insulin, Glucagon, Cortisol, Growth hormone, Catecholamines (epinephrine and norepinephrine), Interleukin-6, tumor necrosis factor-α, Nonesterified fatty acids, β-hydroxybutyrate, and/or Lactate. […]

[3] = late recovery period (standard meal to noon the day after exercise session), mean
[4] = late recovery period (standard meal to noon the day after exercise session), median
[5] = overnight (midnight to 6 am the day after exercise session), mean
[6] = overnight (midnight to 6 am the day after exercise session), median

Substance: glucagon [MDG]
- % of time 70-180 mg/dL-mean (patients with T1D [1]; [3]): 66%
- % of time <70 mg/dl-mean (patients with T1D [1]; [3]): 7%
- Coefficient of Variation-median (patients with T1D [1]; [4]): 34%
- Mean Glucose, mg/dL-median (patients with T1D [1]; [4]): 150 mg/dL
- Nadir Glucose, mg/dL-median (patients with T1D [1]; [4]): 51 mg/dL
- % of time 70-180 mg/dl-mean (patients with T1D [1]; [5]): 59%
- % of time <70 mg/dl-mean (patients with T1D [1]; [5]): 4%
- Coefficient of Variation-median (patients with T1D [1]; [6]): 21%
- Mean Glucose, mg/dl-median (patients with T1D [1]; [6]): 156 mg/dL
- Nadir Glucose, mg/dL-median (patients with T1D [1]; [6]): 91 mg/dL
- Occurrence of Hypoglycemia (<70 mg/dL)-% (patients with T1D [1]; overnight (midnight to 6 am the day after exercise session)): 23%
- post-intervention hyperglycemia (patients with T1D [2]; compared with ingestion of carbohydrate): less post-intervention hyperglycemia than ingestion of carbohydrate
- reducing exercise-induced hypoglycemia (patients with T1D [2]; compared with insulin reduction): more effective than insulin reduction
- frequency of a drop in glucose concentration (patients with T1D [2]; given just before aerobic exercise, people with type 1 diabetes): reduces the frequency of a drop in glucose concentration
